Test results: paper PMC5218480 (PLoS ONE, 2017)

System: MV-4-11 cells
Test: Gene expression microarray analysis (Affymetrix PrimeView) and GSEA
Format: cell-based, human
Parameters: RFU PODN (11730768_x_at) / Fold change /veh PODN (11730768_x_at) / RFU LINC00158 (11744669_a_at) / Fold change /veh LINC00158 (11744669_a_at) / RFU DUSP10 (11751237_a_at) / Fold change /veh DUSP10 (11751237_a_at) / RFU ID3 (11757404_x_at) / Fold change /veh ID3 (11757404_x_at) / RFU PLEKHG5 (11737974_s_at) / Fold change /veh PLEKHG5 (11737974_s_at) / RFU LRRC4B (11730491_at) / Fold change /veh LRRC4B (11730491_at) / RFU GIMAP4 (11747438_a_at) / Fold change /veh GIMAP4 (11747438_a_at) / RFU KRT8 (11758183_x_at) / Fold change /veh KRT8 (11758183_x_at) / RFU CNN1 (11734310_a_at) / Fold change /veh CNN1 (11734310_a_at) / RFU VPS37D (11726825_at) / Fold change /veh VPS37D (11726825_at) / RFU C10orf10 (11716522_x_at) / Fold change /veh C10orf10 (11716522_x_at) / RFU KIR2DL2 /// KIR2DL4 /// KIR2DL5A /// KIR2DL5B /// KIR2DS1 /// KIR2DS2 /// KIR2DS3 /// KIR2DS4 /// KIR3DL3 /// KIR3DL3 /// KIR3DS1 (11738374_at) / Fold change /veh KIR2DL2 /// KIR2DL4 /// KIR2DL5A /// KIR2DL5B /// KIR2DS1 /// KIR2DS2 /// KIR2DS3 /// KIR2DS4 /// KIR3DL3 /// KIR3DL3 /// KIR3DS1 (11738374_at) / RFU C1QL1 (11718748_at) / Fold change /veh C1QL1 (11718748_at) / RFU TMPRSS4 (11747572_a_at) / Fold change /veh TMPRSS4 (11747572_a_at) / RFU HAMP (11756126_x_at) / Fold change /veh HAMP (11756126_x_at) / RFU RNFT2 (11725882_a_at) / Fold change /veh RNFT2 (11725882_a_at) / RFU NR4A2 (11747474_a_at) / Fold change /veh NR4A2 (11747474_a_at) / RFU ABCC12 (11746883_a_at) / Fold change /veh ABCC12 (11746883_a_at) / RFU TMEM136 (11760407_x_at) / Fold change /veh TMEM136 (11760407_x_at) / RFU CLDN22 /// WWC2 (11732394_at) / Fold change /veh CLDN22 /// WWC2 (11732394_at) / RFU HLA-DPB1 (11760878_x_at) / Fold change /veh HLA-DPB1 (11760878_x_at) / RFU SPINT1 (11716480_a_at) / Fold change /veh SPINT1 (11716480_a_at) / RFU GAP43 (11754022_s_at) / Fold change /veh GAP43 (11754022_s_at) / RFU A4GNT (11735810_at) / Fold change /veh A4GNT (11735810_at) / RFU PRB3 (11715151_x_at) / Fold change /veh PRB3 (11715151_x_at) / RFU TUBB4B (11761932_at) / Fold change /veh TUBB4B (11761932_at) / RFU CAPN14 (11732068_a_at) / Fold change /veh CAPN14 (11732068_a_at) / RFU TMCC2 (11721928_a_at) / Fold change /veh TMCC2 (11721928_a_at) / RFU IRGQ (11745062_a_at) / Fold change /veh IRGQ (11745062_a_at) / RFU FAM174B (11720279_a_at) / Fold change /veh FAM174B (11720279_a_at) / RFU TMPRSS4 (11748680_a_at) / Fold change /veh TMPRSS4 (11748680_a_at) / RFU FAM212B (11763350_a_at) / Fold change /veh FAM212B (11763350_a_at) / RFU PLEKHG5 (11743358_a_at) / Fold change /veh PLEKHG5 (11743358_a_at) / RFU ZSCAN30 (11745921_a_at) / Fold change /veh ZSCAN30 (11745921_a_at) / RFU CMKLR1 (11741424_a_at) / Fold change /veh CMKLR1 (11741424_a_at) / RFU LOC101060620 /// MAPK8IP1 (11723275_at) / Fold change /veh LOC101060620 /// MAPK8IP1 (11723275_at) / RFU SPTSSB (11747773_x_at) / Fold change /veh SPTSSB (11747773_x_at) / RFU PRSS12 (11739890_at) / Fold change /veh PRSS12 (11739890_at) / RFU BIN1 (11741810_x_at) / Fold change /veh BIN1 (11741810_x_at) / RFU WNT11 (11732464_a_at) / Fold change /veh WNT11 (11732464_a_at) / RFU C10orf10 (11716521_a_at) / Fold change /veh C10orf10 (11716521_a_at) / RFU C5orf56 (11738089_at) / Fold change /veh C5orf56 (11738089_at) / RFU CYB561 (11721691_x_at) / Fold change /veh CYB561 (11721691_x_at) / RFU ANKRD19P (11752326_a_at) / Fold change /veh ANKRD19P (11752326_a_at) / RFU OR2T12 /// OR2T33 /// OR2T8 (11738714_s_at) / Fold change /veh OR2T12 /// OR2T33 /// OR2T8 (11738714_s_at) / RFU VCAN (11748164_a_at) / Fold change /veh VCAN (11748164_a_at) / RFU JSRP1 (11732532_at) / Fold change /veh JSRP1 (11732532_at) / RFU KRTAP10-11 (11738290_x_at) / Fold change /veh KRTAP10-11 (11738290_x_at) / RFU MYO3A (11730013_a_at) / Fold change /veh MYO3A (11730013_a_at) / RFU EBF3 (11725865_a_at) / Fold change /veh EBF3 (11725865_a_at) / RFU CAMK2N1 (11719241_x_at) / Fold change /veh CAMK2N1 (11719241_x_at) / RFU C5orf56 (11738088_a_at) / Fold change /veh C5orf56 (11738088_a_at) / RFU OLFML3 (11715873_a_at) / Fold change /veh OLFML3 (11715873_a_at) / RFU LOC100653217 /// NTM (11731650_a_at) / Fold change /veh LOC100653217 /// NTM (11731650_a_at) / RFU MAPK11 (11762145_a_at) / Fold change /veh MAPK11 (11762145_a_at) / RFU FIZ1 (11724087_x_at) / Fold change /veh FIZ1 (11724087_x_at) / RFU OASL (11726364_x_at) / Fold change /veh OASL (11726364_x_at) / RFU SOX15 (11748057_x_at) / Fold change /veh SOX15 (11748057_x_at) / RFU CD79A (11719716_a_at) / Fold change /veh CD79A (11719716_a_at) / RFU HIST1H1D (11736915_at) / Fold change /veh HIST1H1D (11736915_at) / RFU CASKIN2 (11723855_a_at) / Fold change /veh CASKIN2 (11723855_a_at) / RFU LOC730098 (11760151_x_at) / Fold change /veh LOC730098 (11760151_x_at) / RFU OR4N2 (11742367_at) / Fold change /veh OR4N2 (11742367_at) / RFU PRRT2 (11749266_a_at) / Fold change /veh PRRT2 (11749266_a_at) / RFU SNX32 (11753110_a_at) / Fold change /veh SNX32 (11753110_a_at) / RFU CDHR5 (11726645_a_at) / Fold change /veh CDHR5 (11726645_a_at) / RFU RCAN1 (11760418_a_at) / Fold change /veh RCAN1 (11760418_a_at) / RFU FAM167A (11723789_a_at) / Fold change /veh FAM167A (11723789_a_at) / RFU FAM26E (11764081_at) / Fold change /veh FAM26E (11764081_at) / RFU ISYNA1 (11749810_s_at) / Fold change /veh ISYNA1 (11749810_s_at) / RFU ACY1 (11761880_at) / Fold change /veh ACY1 (11761880_at) / RFU 11764098_at / Fold change /veh 11764098_at / RFU SAMD14 (11745864_x_at) / Fold change /veh SAMD14 (11745864_x_at) / RFU NPB (11741838_a_at) / Fold change /veh NPB (11741838_a_at) / RFU TMPRSS6 (11731388_a_at) / Fold change /veh TMPRSS6 (11731388_a_at) / RFU KRTAP10-2 (11738614_at) / Fold change /veh KRTAP10-2 (11738614_at) / RFU ARHGAP8 /// PRR5-ARHGAP8 (11727945_x_at) / Fold change /veh ARHGAP8 /// PRR5-ARHGAP8 (11727945_x_at) / RFU KRTAP5-7 /// NADSYN1 (11734609_at) / Fold change /veh KRTAP5-7 /// NADSYN1 (11734609_at) / RFU RASL12 (11751679_a_at) / Fold change /veh RASL12 (11751679_a_at) / RFU CDKN2B (11736163_a_at) / Fold change /veh CDKN2B (11736163_a_at) / RFU PRF1 (11729649_at) / Fold change /veh PRF1 (11729649_at) / RFU, ZNF638 /// ZNF638-IT1 / Fold change vs veh, ZNF638 /// ZNF638-IT1 / RFU, PANK3 / Fold change vs veh, PANK3 / RFU, SH3YL1 / Fold change vs veh, SH3YL1 / RFU, ZEB2 / Fold change vs veh, ZEB2 / RFU, NRIP1 / Fold change vs veh, NRIP1 / RFU, PTTG1IP / Fold change vs veh, PTTG1IP / RFU, CAPN2 / Fold change vs veh, CAPN2 / RFU, MED14 / Fold change vs veh, MED14 / RFU, SNORA58 / Fold change vs veh, SNORA58 / RFU, C1orf63 / Fold change vs veh, C1orf63 / RFU, LRRFIP1 / Fold change vs veh, LRRFIP1 / RFU, NDUFAF7 / Fold change vs veh, NDUFAF7 / RFU, SLC12A2 / Fold change vs veh, SLC12A2 / RFU, IBTK / Fold change vs veh, IBTK / RFU, ESF1 / Fold change vs veh, ESF1 / Fold change vs veh, TMEM50B / RFU, TAOK1 / Fold change vs veh, TAOK1 / RFU, ACBD3 / Fold change vs veh, ACBD3 / RFU, TMA16 / Fold change vs veh, TMA16 / RFU, RWDD3 / Fold change vs veh, RWDD3 / RFU, BCAT1 / Fold change vs veh, BCAT1 / RFU, EDEM3 / Fold change vs veh, EDEM3 / RFU, TMEM33 / Fold change vs veh, TMEM33 / RFU, WDR75 / Fold change vs veh, WDR75 / RFU, AHCTF1 / Fold change vs veh, AHCTF1 / RFU, TFRC / Fold change vs veh, TFRC / RFU, ZDHHC17 / Fold change vs veh, ZDHHC17 / RFU, NOM1 / Fold change vs veh, NOM1 / RFU, ARL8B / Fold change vs veh, ARL8B / RFU, ZBTB11 / Fold change vs veh, ZBTB11 / RFU, TAMM41 / Fold change vs veh, TAMM41 / RFU, KIAA1704 /// LOC100996395 / Fold change vs veh, KIAA1704 /// LOC100996395 / RFU, ING1 / Fold change vs veh, ING1 / RFU, TRMT61B / Fold change vs veh, TRMT61B / RFU, FUBP3 / Fold change vs veh, FUBP3 / RFU, TP53 / Fold change vs veh, TP53 / RFU, TNKS2 / Fold change vs veh, TNKS2 / RFU, ZFP14 / Fold change vs veh, ZFP14 / RFU, ACTR2 / Fold change vs veh, ACTR2 / RFU, PPP3R1 / Fold change vs veh, PPP3R1 / RFU, PIK3R1 / Fold change vs veh, PIK3R1 / RFU, HNRNPA1 / Fold change vs veh, HNRNPA1 / RFU, RNF170 / Fold change vs veh, RNF170 / RFU, ZNF28 / Fold change vs veh, ZNF28 / RFU, RNGTT / Fold change vs veh, RNGTT / RFU, OGT / Fold change vs veh, OGT / RFU, BRD1 / Fold change vs veh, BRD1 / RFU, MARS / Fold change vs veh, MARS / RFU, ZNF655 / Fold change vs veh, ZNF655 / RFU, FAHD1 / Fold change vs veh, FAHD1 / RFU, BDP1 / Fold change vs veh, BDP1 / RFU, LRRCC1 / Fold change vs veh, LRRCC1 / RFU, ARID1A / Fold change vs veh, ARID1A / RFU, ZNF146 / Fold change vs veh, ZNF146 / RFU, ZNF330 / Fold change vs veh, ZNF330 / RFU, GPN3 / Fold change vs veh, GPN3 / RFU, C9orf123 / Fold change vs veh, C9orf123 / RFU, N4BP2L2 / Fold change vs veh, N4BP2L2 / RFU, ARFIP1 / Fold change vs veh, ARFIP1 / RFU, FAM179B / Fold change vs veh, FAM179B / RFU, BCL10 / Fold change vs veh, BCL10 / RFU, UHRF1BP1L / Fold change vs veh, UHRF1BP1L / RFU, BET1 / Fold change vs veh, BET1 / RFU, CNOT2 / Fold change vs veh, CNOT2 / RFU, ZNF268 / Fold change vs veh, ZNF268 / Fold change vs veh, ZNF507 / RFU, DGCR2 / Fold change vs veh, DGCR2 / RFU, WDSUB1 / Fold change vs veh, WDSUB1 / Fold change vs veh, HSP90B1 /// MIR3652 / RFU, ADSS / Fold change vs veh, ADSS / RFU, GK / Fold change vs veh, GK / RFU, ZNF148 / Fold change vs veh, ZNF148 / RFU, TAF9 / Fold change vs veh, TAF9 / RFU, SLC1A5 / Fold change vs veh, SLC1A5 / RFU, SLMO2 / Fold change vs veh, SLMO2 / RFU, ABCC4 / Fold change vs veh, ABCC4 / RFU, LOC101060439 /// RAP1B / Fold change vs veh, LOC101060439 /// RAP1B / RFU, RFX7 / Fold change vs veh, RFX7 / RFU, GTPBP10 / Fold change vs veh, GTPBP10 / RFU, CNEP1R1 / Fold change vs veh, CNEP1R1 / RFU, BIVM-ERCC5 /// ERCC5 / Fold change vs veh, BIVM-ERCC5 /// ERCC5 / RFU, ILF3 / Fold change vs veh, ILF3 / RFU 11762660_at / Fold change /veh 11762660_at / RFU VCAN (11757783_s_at) / Fold change /veh VCAN (11757783_s_at) / RFU DDX43 (11728927_at) / Fold change /veh DDX43 (11728927_at) / RFU KRT8 (11758188_x_at) / Fold change /veh KRT8 (11758188_x_at) / RFU NKD1 (11759106_at) / Fold change /veh NKD1 (11759106_at) / RFU SRD5A1 (11742802_a_at) / Fold change /veh SRD5A1 (11742802_a_at) / RFU TPSAB1 /// TPSB2 (11721975_s_at) / Fold change /veh TPSAB1 /// TPSB2 (11721975_s_at) / RFU GSTM3 (11746129_a_at) / Fold change /veh GSTM3 (11746129_a_at) / RFU IL23R (11737362_x_at) / Fold change /veh IL23R (11737362_x_at) / RFU TMEM51 (11727254_a_at) / Fold change /veh TMEM51 (11727254_a_at) / RFU PIWIL2 (11732686_x_at) / Fold change /veh PIWIL2 (11732686_x_at) / RFU ORM1 (11744905_x_at) / Fold change /veh ORM1 (11744905_x_at) / RFU CCDC152 (11743942_at) / Fold change /veh CCDC152 (11743942_at) / RFU ECM1 (11717891_a_at) / Fold change /veh ECM1 (11717891_a_at) / RFU IL23R (11748794_a_at) / Fold change /veh IL23R (11748794_a_at) / RFU TNFAIP8L3 (11732012_x_at) / Fold change /veh TNFAIP8L3 (11732012_x_at) / RFU MBOAT4 (11741988_at) / Fold change /veh MBOAT4 (11741988_at) / RFU 11764193_at / Fold change /veh 11764193_at / RFU TMEM53 (11763286_at) / Fold change /veh TMEM53 (11763286_at) / RFU MAGEB2 (11727129_at) / Fold change /veh MAGEB2 (11727129_at) / RFU TMEM200A (11744735_a_at) / Fold change /veh TMEM200A (11744735_a_at) / RFU CCDC152 (11751479_a_at) / Fold change /veh CCDC152 (11751479_a_at) / RFU FAM211A (11726209_a_at) / Fold change /veh FAM211A (11726209_a_at) / RFU RGS16 (11746705_a_at) / Fold change /veh RGS16 (11746705_a_at) / RFU VCAN (11755009_s_at) / Fold change /veh VCAN (11755009_s_at) / RFU RHOB (11743442_s_at) / Fold change /veh RHOB (11743442_s_at) / RFU RGS16 (11720943_a_at) / Fold change /veh RGS16 (11720943_a_at) / RFU RGS16 (11720944_at) / Fold change /veh RGS16 (11720944_at) / RFU, VPS4B / Fold change vs veh, VPS4B / RFU, CREB1 / Fold change vs veh, CREB1 / RFU, DNAJC13 / Fold change vs veh, DNAJC13 / RFU, GNAQ / Fold change vs veh, GNAQ / RFU, CDK5R1 / Fold change vs veh, CDK5R1 / RFU, ZRANB3 / Fold change vs veh, ZRANB3 / RFU, CUL4A / Fold change vs veh, CUL4A / RFU, CCNY / Fold change vs veh, CCNY / RFU, UFL1 / Fold change vs veh, UFL1 / RFU, COG3 / Fold change vs veh, COG3 / RFU, DIAPH2 / Fold change vs veh, DIAPH2 / RFU, SKA2 / Fold change vs veh, SKA2 / RFU, AFF3 / Fold change vs veh, AFF3 / RFU, LMF1 / Fold change vs veh, LMF1 / RFU, IPO11 / Fold change vs veh, IPO11 / RFU, DFFB / Fold change vs veh, DFFB / RFU, FOXP1 / Fold change vs veh, FOXP1 / RFU, CARD8 / Fold change vs veh, CARD8 / RFU, STRN3 / Fold change vs veh, STRN3 / RFU, ADK / Fold change vs veh, ADK / RFU, RASSF2 / Fold change vs veh, RASSF2 / RFU, WIPF1 / Fold change vs veh, WIPF1 / RFU, LARP1B / Fold change vs veh, LARP1B / RFU, RASA1 / Fold change vs veh, RASA1 / RFU, RB1 / Fold change vs veh, RB1 / RFU, PPFIA1 / Fold change vs veh, PPFIA1 / RFU, MAT2A / Fold change vs veh, MAT2A / RFU, CCT5 / Fold change vs veh, CCT5 / RFU, WDR92 / Fold change vs veh, WDR92 / RFU, CUX1 / Fold change vs veh, CUX1 / RFU, TTC7A / Fold change vs veh, TTC7A / RFU, TMEM135 / Fold change vs veh, TMEM135 / RFU, DEPTOR / Fold change vs veh, DEPTOR / RFU, CPM / Fold change vs veh, CPM / RFU, DNAJB6 / Fold change vs veh, DNAJB6 / RFU, CACNA2D3 / Fold change vs veh, CACNA2D3 / RFU, DTX4 / Fold change vs veh, DTX4 / RFU, TFCP2 / Fold change vs veh, TFCP2 / RFU, GMCL1 /// GMCL1P1 / Fold change vs veh, GMCL1 /// GMCL1P1 / RFU, AEBP2 / Fold change vs veh, AEBP2 / RFU, SNHG1 /// SNORD22 /// SNORD25 /// SNORD26 /// SNORD27 /// SNORD28 /// SNORD29 /// SNORD31 / Fold change vs veh, SNHG1 /// SNORD22 /// SNORD25 /// SNORD26 /// SNORD27 /// SNORD28 /// SNORD29 /// SNORD31 / Fold change (Aza/veh), C12orf56 (ProbeSet 11735607_a_at) / Fold change (ACY-1035/veh), C12orf56 (ProbeSet 11735607_a_at) / Fold change (Aza/veh), FGFR1OP (ProbeSet 11751329_s_at) / Fold change (ACY-1035/veh), FGFR1OP (ProbeSet 11751329_s_at) / Fold change (Aza/veh), VPS36 (ProbeSet 11739960_a_at) / Fold change (ACY-1035/veh), VPS36 (ProbeSet 11739960_a_at) / RFU SYPL1 (11715823_x_at) / Fold change /veh SYPL1 (11715823_x_at) / RFU IGFBP7 (11715501_s_at) / Fold change /veh IGFBP7 (11715501_s_at) / RFU REEP3 (11722064_at) / Fold change /veh REEP3 (11722064_at) / RFU IGLL1 (11728026_x_at) / Fold change /veh IGLL1 (11728026_x_at): dose or concentration left out as unconfirmed
Conditions: MV-4-11 cells, 48 hours

Nc1ccc(-c2cccs2)cc1NC(=O)c1ccc2c(c1)cc(C1CC1)n2CCN1CCOCC1 [ACY-1035]
Fold change /veh TMCC2 (11721928_a_at): 1.04
